Patent US20050101595A1, “N-containing cycloalkyl-substituted amino-thiazole derivatives and pharmaceutical compositions for inhibiting cell proliferation and methods for their use” (PFIZER INC., priority 2003, published 2005)
Counter-ions that a name gives are not always drawn. Like-named read-outs stand apart in the source and are kept apart here.

How the values were obtained:
CDK2/Cyclin A = CDK2/Cyclin A (Homo sapiens, UniProt P24941); test: Inhibition of CDK2/Cyclin A Retinoblastoma Kinase Activity; format: biochemical; settings: for Ki: apparent Ki, CDK2/proteolyzed cyclin A, Rb fragment substrate, 25 μM ATP
How it was run: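 Baculovirus-expressed CDK2 complexed with proteolyzed cyclin A (10 or 19 nM), Rb fragment substrate, 25 μM [32P/33P]ATP, HEPES pH 7.4, 30 °C for 60 or 75 min under initial-rate conditions. Filter capture and phosphorimager readout; apparent Ki fitted to competitive or tight-binding competitive inhibition.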

HCT-116 cell line = test: Inhibition of cell growth, tetrazolium salt (MTT) assay; format: cell-based; settings: for HCT-116 % Inhibition at 0.25 μM: 0.25 μM compound; for IC50: HCT-116, 120 h, MTT, three to five days, read-out: HCT-116 IC50
How it was run: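 First, cells were seeded in McCoy's 5A medium and held 4 h. Next, inhibitor concentrations in 0.5% (v/v) DMSO were applied for three to five days at 37° C, 5% CO2. Finally, after 4 h with 0.2 mg/mL MTT and medium removal, solubilized formazan was measured at 540 nm.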

[1] = biological target: human CDK4 and genetically truncated (1-264) cyclin D3 (Homo sapiens, UniProt P11802); test: Inhibition of CDK4/Cyclin D Retinoblastoma Kinase Activity; format: biochemical; settings: for Ki: apparent Ki, CDK4/truncated cyclin D3, Rb fragment substrate, 25 μM ATP
Sequence of human CDK4 and genetically truncated (1-264) cyclin D3 (P11802 whole entry, the tested form may be a part): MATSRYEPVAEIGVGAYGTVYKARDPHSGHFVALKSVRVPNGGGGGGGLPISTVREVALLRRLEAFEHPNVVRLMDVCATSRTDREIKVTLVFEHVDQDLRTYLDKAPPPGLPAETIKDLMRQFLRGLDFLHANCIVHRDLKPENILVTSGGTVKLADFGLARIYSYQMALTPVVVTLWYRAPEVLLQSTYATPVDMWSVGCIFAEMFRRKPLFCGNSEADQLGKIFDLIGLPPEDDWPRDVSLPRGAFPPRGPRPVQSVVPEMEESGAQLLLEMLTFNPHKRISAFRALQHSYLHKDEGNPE
Sequence of human CDK4 and genetically truncated (1-264) cyclin D3 (P30281 1-264 partner): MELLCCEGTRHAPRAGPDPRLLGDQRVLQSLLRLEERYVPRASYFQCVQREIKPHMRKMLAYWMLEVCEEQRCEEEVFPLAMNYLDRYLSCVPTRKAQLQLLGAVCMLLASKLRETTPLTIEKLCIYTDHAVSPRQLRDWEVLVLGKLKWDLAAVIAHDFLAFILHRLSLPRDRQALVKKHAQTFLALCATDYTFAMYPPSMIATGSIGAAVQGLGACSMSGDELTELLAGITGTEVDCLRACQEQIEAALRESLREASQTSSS
How it was run: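 Human CDK4/truncated cyclin D3 (1-264) complex from baculovirus-infected insect cells, 5 nM, phosphorylating Rb fragment (residues 386-928, His-tagged) with 25 μM [32/33P]ATP in HEPES pH 7.4, MgCl2, 2% DMSO at 30° C. for 20 min (60 min for tight binders). Filter-captured radioactivity by phosphorimager; apparent Ki from competitive or tight-binding fits.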

[2] = Homo sapiens, first HCT-116 column (c4)
[3] = Homo sapiens, second HCT-116 column (c5)
[4] = 0.1 μM compound, HCT-116, Table 3

Compound	CDK2 % Inhibition At 0.03 μM (CDK2/Cyclin A; 0.03 μM compound, Table 2) [%]	HCT-116 % Inhibition at 0.25 μM (HCT-116 cell line; HCT-116, Table 2) [%]	CDK4 % Inhibition at 0.03 μM ([1]; 0.03 μM compound, Table 2) [%]	Ki (CDK2/Cyclin A) [nM]	IC50 (HCT-116 cell line; [2]) [nM]	IC50 (HCT-116 cell line; [3]) [nM]	Ki [1] [nM]	further results
CCNC(=O)N1CCC(Nc2nc(N)c(C(=O)c3c(F)cccc3F)s2)CC1 [Example O31]	33	37	6					
CCCCCCCOc1ccc(NC(=O)N2CCC(Nc3nc(N)c(C(=O)c4c(F)cccc4F)s3)CC2)cc1 [Example O83]	29	59	12					
Nc1nc(NC2CCN(S(=O)(=O)c3ccc(OCCN4CCOCC4)nc3)CC2)sc1C(=O)c1c(F)cccc1F [Example H2, 1-{4-Amino-2-[1-{6-morpholin-(4-yl-ethoxy)-pyridine-3-sulfonyl}-piperidin-4-ylamino]-thiazol-5-yl}-1-(2,6-difluoro-phenyl)-methanone Hydrochloride]				2.8	80	250	0.77	
Nc1nc(NC2CCN(C(=O)NC3C[C@H]3c3ccccc3)CC2)sc1C(=O)c1c(F)cccc1F (some centres unmarked) [Example O1]								inhibition at 0.03 µM (CDK2/Cyclin A; 0.03 μM compound, Table 2): 30%; inhibition at 0.25 µM (HCT-116 cell line; Homo sapiens, HCT-116, 0.25 μM compound, HCT-116, Table 2, read-out: HCT-116 % Inhibition at 0.25 μM): 0%; inhibition at 0.03 µM ([1]; 0.03 μM compound, Table 2): -4%
Cc1cc(C(=O)N2CCC(Nc3nc(N)c(C(=O)c4c(F)cccc4F)s3)CC2)n(C(C)(C)C)n1 [Example R59]								CDK2 % Inhibition at 0.03 μM (CDK2/Cyclin A; at 0.03 μM): 16%; HCT-116 % Inhibition at 0.1 μM (HCT-116 cell line; HCT-116 cells, at 0.1 μM): 4%; HCT-116 5 Inhibition at 0.25 μM (HCT-116 cell line; HCT-116 cells): 47; CDK4 % Inhibition at 0.03 μM ([1]; at 0.03 μM): 25%
Cc1noc(C)c1S(=O)(=O)N1CCC(Nc2nc(N)c(C(=O)c3c(F)cccc3F)s2)CC1 [Example P51]								CDK2 % Inhibition at 0.03 μM (CDK2/Cyclin A; 0.03 μM compound, Table 3): 3%; HCT-116 % Inhibition at 0.1 μM (HCT-116 cell line; [4]): 18%; HCT-116 % Inhibition at 0.25 μM (HCT-116 cell line; HCT-116, Table 3): 21%; CDK4 % Inhibition at 0.03 μM ([1]; 0.03 μM compound, Table 3): 27%
Nc1nc(NC2CCN(S(=O)(=O)c3ccccc3F)CC2)sc1C(=O)c1c(F)cccc1F [Example P32]								CDK2 % Inhibition at 0.03 μM (CDK2/Cyclin A; 0.03 μM compound, Table 3): 58%; HCT-116 % Inhibition at 0.1 μM (HCT-116 cell line; [4]): 13%; HCT-116 % Inhibition at 0.25 μM (HCT-116 cell line; HCT-116, Table 3): 28%; CDK4 % Inhibition at 0.03 μM ([1]; 0.03 μM compound, Table 3): 59%
Nc1nc(NC2CCN(C(=O)OC3CCCC3)CC2)sc1C(=O)c1c(F)cccc1F [Example R87]								CDK2 % Inhibition at 0.03 μM (CDK2/Cyclin A; at 0.03 μM): 17%; HCT-116 % Inhibition at 0.1 μM (HCT-116 cell line; HCT-116 cells, at 0.1 μM): 0%; HCT-116 5 Inhibition at 0.25 μM (HCT-116 cell line; HCT-116 cells): 36; CDK4 % Inhibition at 0.03 μM ([1]; at 0.03 μM): 28%
CN(C)CCOc1nc(S(=O)(=O)N2CCC(Nc3nc(N)c(C(=O)c4c(F)cccc4F)s3)CC2)cn1C [Example H25, (4-Amino-2-{1-[2-(2-dimethylamino-ethoxy)-1-methyl-1H-imidazole-4-sulfonyl]-piperidin-4-ylamino}-thiazol-5-yl)-(2,6-difluoro-phenyl)-methanone Hydrochloride Salt]				20	> 5000	> 5000	83	
Cn1cncc1-c1ccc(S(=O)(=O)N2CCC(Nc3nc(N)c(C(=O)c4c(F)cccc4F)s3)CC2)cc1 [Example F32, 1-(4-Amino-2-{1-[4-(3-methyl-3H-imidazol-4-yl)-benzenesulfonyl]-piperidin-4-ylamino}-thiazol-5-yl)-1-(2,6-difluoro-phenyl)-methanone Trifluoroacetic Acid Salt]				0.4	110	380	0.9	
COC(=O)NC(=O)N1CCC(Nc2nc(N)c(C(=O)c3c(F)cccc3F)s2)CC1 [Example O61]	33	38	12					
Cc1ccc(S(=O)(=O)N2CCC(Nc3nc(N)c(C(=O)c4c(F)cccc4F)s3)CC2)cc1 [Example F15, {4-Amino-2-[1-(toluene-4-sulfonyl)-piperidin-4-ylamino]-thiazol-5-yl}-(2,6-difluoro-phenyl)-methanone]				2.8	410	1200	3.4	
CCCCCCNC(=O)N1CCC(Nc2nc(N)c(C(=O)c3c(F)cccc3F)s2)CC1 [Example O58]	34	42	6					
